According to patent US6340694B1, “Diarylbenzopyran derivatives as cyclooxygenase-2 inhibitors” (Pacific Corporation, priority 1998, dated 2002):

How the values were obtained:
COX-2 = target: T1, COX-2 (Mus musculus, UniProt Q05769); experiment: Evaluation of COX-2's inhibition efficacy (PGE2 radioimmuno assay, LPS-induced, aspirin-pretreated peritoneal macrophages); assay type: cell-based, C57BL/6 mouse
T1 construct: endogenous in cells; host or cells: peritoneal macrophages of C57BL/6 mouse, aspirin-pretreated, LPS-induced
T1 sequence (Q05769 18-604): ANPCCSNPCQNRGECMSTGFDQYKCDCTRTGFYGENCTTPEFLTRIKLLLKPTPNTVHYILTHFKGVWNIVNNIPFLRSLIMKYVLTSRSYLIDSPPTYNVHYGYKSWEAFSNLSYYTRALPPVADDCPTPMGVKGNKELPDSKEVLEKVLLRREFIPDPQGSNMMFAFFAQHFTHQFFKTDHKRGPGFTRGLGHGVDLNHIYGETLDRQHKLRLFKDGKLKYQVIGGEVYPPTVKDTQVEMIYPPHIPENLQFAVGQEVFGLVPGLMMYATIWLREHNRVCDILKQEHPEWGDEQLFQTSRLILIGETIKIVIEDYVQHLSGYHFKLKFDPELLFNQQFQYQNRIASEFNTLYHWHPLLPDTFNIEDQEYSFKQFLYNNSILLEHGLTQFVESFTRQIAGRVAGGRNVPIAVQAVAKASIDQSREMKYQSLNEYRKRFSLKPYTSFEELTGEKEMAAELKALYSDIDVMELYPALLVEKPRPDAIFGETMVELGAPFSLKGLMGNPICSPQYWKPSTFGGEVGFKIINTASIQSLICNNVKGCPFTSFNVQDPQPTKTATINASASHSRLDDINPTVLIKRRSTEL
Experimental: Regarding the compounds in the above Examples and indomethacin, the inhibition efficacy of COX-2 and COX-1 are being measured by the following two methods. […] Evaluation of COX-2's Inhibition Efficacy (J. Pharmacol. Exp. […] After cleaning C57BL/6 mouse's abdomen by 70% EtOH, the skin of mouse's abdomen was eliminated cautiously not to harm peritomeum and 5 ml of cold PBS was poured into the abdominal cavity and in certain times later macrophage-bleeding abdominal-liquid was collected by syringe. […] After putting 1 ml cell suspension having cell number of 1×10^6 cells/mu into each 24-well microtiter plates, macrophages were adhered to the bottom of plate by culturing in the condition of 5% CO2/95% O2, at a temperature of 37° C. for 2 hours. Other cells not being adhered to were eliminated by washing two times with PBS. The purity of macrophages obtained through this process was identified by differential counting. […] After inducing COX-2 by LPS, the cell culture medium was eliminated and macrophages was washed two times with PBS. And 1 ml of RRPI-1640 badge was added to each well again and after treating them with sample with appropriate concentration, they were cultured at a temperature of 37i É for 10 minutes. And then treated them with arachidonic acid to make their final concentration as 10 μM and cultured them additional 10 minutes, all the supernatant liquid of reaction was obtained. The amount of PGE2 produced in the supernatant liquid of reaction was determined by the PGE2 radioimmuno assay.

COX-1 = target: T2, COX-1 (Mus musculus, UniProt P22437); experiment: Evaluation of COX-1's inhibition efficacy (macrophages without aspirin and LPS pre-treatment); assay type: cell-based, C57BL/6 mouse
T2 construct: there is no pre-treatment of aspirin and LPS in the adhesion of macrophage; endogenous in cells; host or cells: peritoneal macrophages of C57BL/6 mouse, without aspirin and LPS pre-treatment
T2 sequence (P22437 27-602): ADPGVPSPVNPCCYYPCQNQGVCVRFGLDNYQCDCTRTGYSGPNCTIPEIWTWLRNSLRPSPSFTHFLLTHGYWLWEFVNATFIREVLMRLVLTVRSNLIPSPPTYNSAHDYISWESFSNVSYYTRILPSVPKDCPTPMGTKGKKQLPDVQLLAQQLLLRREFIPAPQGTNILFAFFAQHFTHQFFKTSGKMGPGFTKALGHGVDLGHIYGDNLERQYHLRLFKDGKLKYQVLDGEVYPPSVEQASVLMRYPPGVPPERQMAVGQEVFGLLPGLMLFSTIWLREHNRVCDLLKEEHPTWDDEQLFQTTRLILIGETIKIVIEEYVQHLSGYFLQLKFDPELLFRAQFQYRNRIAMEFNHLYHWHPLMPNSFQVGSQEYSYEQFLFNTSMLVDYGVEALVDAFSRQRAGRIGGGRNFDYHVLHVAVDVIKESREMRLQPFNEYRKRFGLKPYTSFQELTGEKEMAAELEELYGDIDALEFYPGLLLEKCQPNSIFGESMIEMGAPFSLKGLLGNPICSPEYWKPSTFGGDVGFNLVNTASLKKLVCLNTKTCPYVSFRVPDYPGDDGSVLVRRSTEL
Experimental: Regarding the compounds in the above Examples and indomethacin, the inhibition efficacy of COX-2 and COX-1 are being measured by the following two methods.
After cleaning C57BL/6 mouse's abdomen by 70% EtOH, the skin of mouse's abdomen was eliminated cautiously not to harm peritomeum and 5 ml of cold PBS was poured into the abdominal cavity and in certain times later macrophage-bleeding abdominal-liquid was collected by syringe. By adding RPMI-1640 badge containing penicillin(100 unit/mt) and streptomycin([…]) to cell pellet obtained by centrifugation of collected liquid about 5 minutes in 1500 rpm, it was disperesed and also COX-1 existing in the cell was inactivated by treating with 500 μM aspirin. After putting 1 ml cell suspension having cell number of 1×10^6 cells/mu into each 24-well microtiter plates, macrophages were adhered to the bottom of plate by culturing in the condition of 5% CO2/95% O2, at a temperature of 37° C. for 2 hours. Other cells not being adhered to were eliminated by washing two times with PBS. The purity of macrophages obtained through this process was identified by differential counting. After adding RPMI-1640 badge(normally 5×10^5 cell/ml) containing 3% right fetal blood serum to macrophage and treating it with LPS(lipopolysaccharide) to make final concentration as 10 μg/ml, it was cultured in the condition of 5% CO2, at a temperature of 37° C. for 16 hours. After inducing COX-2 by LPS, the cell culture medium was eliminated and macrophages was washed two times with PBS. And 1 ml of RRPI-1640 badge was added to each well again and after treating them with sample with appropriate concentration, they were cultured at a temperature of 37i É for 10 minutes. And then treated them with arachidonic acid to make their final concentration as 10 μM and cultured them additional 10 minutes, all the supernatant liquid of reaction was obtained. The amount of PGE2 produced in the supernatant liquid of reaction was determined by the PGE2 radioimmuno assay. The 100% COX-2's activation is referenced by the difference of the amount of PGE2 produced in the supernatant liquid of reaction between with 10 μM arachidonic acid treatment and without 10 μM arachidonic acid treatment.
2. Evaluation of COX-1's Inhibition Efficacy
Following the same procedure as the above evaluation of COX-2's inhibition efficacy, but there is no pre-treatment of aspirin and LPS in the adhesion of macrophage.

| Compound | inhibition at 0.1 µg/mL (COX-2; 0.1 μg/ml) [%] | inhibition at 1 µg/mL (COX-2; 1 μg/ml) [%] | inhibition at 10 µg/mL (COX-2; 10 μg/ml) [%] | inhibition at 10 µg/mL (COX-1; 10 μg/ml) [%] | inhibition at 1 µg/mL (COX-1; 1 μg/ml) [%] | other results |
| --- | --- | --- | --- | --- | --- | --- |
| NS(=O)(=O)c1ccc(-c2oc3cc(F)ccc3c(=O)c2-c2ccc(F)cc2)cc1 [Example 59, 2-(4-(Aminosulfonyl)phenyl)-7-fluoro-3-(4-fluorophenyl)-4H-1-benzopyran-4-one] | 39 | 100 | – | – | – | – |
| CS(=O)(=O)c1ccc(-c2oc3ccccc3c(=O)c2-c2ccccn2)cc1 [Example 33, 2-(4-(Methylsulfonyl)phenyl)-3-(2-pyridinyl)-4H-1-benzopyran-4-one] | – | 27 | 44 | 17 | – | – |
| CS(=O)(=O)c1ccc(-c2oc3ccccc3c(=O)c2-c2cccc(Cl)c2Cl)cc1 [Example 14, 3-(2,3-Dichlorophenyl)-2-(4-(methylsulfonyl)phenyl)-4H-1-benzopyran-4-one] | 18 | 32 | 71 | – | – | – |
| Cc1ccccc1-c1c(-c2ccc(S(C)(=O)=O)cc2)oc2ccccc2c1=O [Example 23, 3-(2-Methylphenyl)-2-(4-(methylsulfonyl)phenyl)-4H-1-benzopyran-4-one] | 23 | 84 | 97 | – | – | – |
| NS(=O)(=O)c1ccc(-c2oc3ccccc3c(=O)c2-c2ccc3c(c2)OCO3)cc1 [Example 54, 2-(4-(Aminosulfonyl)phenyl)-3-((3,4-methylenedioxy)phenyl)-4H-1-benzopyran-4-one] | – | – | – | – | – | Inhibition (%) COX-2 (COX-2; 0.1 μg/ml): 20%; Inhibition (%) COX-2 (COX-2; 1 μg/ml): 84%; Inhibition (%) COX-1 (COX-1; 10 μg/ml): 75% |
| NS(=O)(=O)c1ccc(-c2oc3ccc(F)cc3c(=O)c2-c2ccccc2)cc1 [Example 47, 2-(4-(Aminosulfonyl)phenyl)-6-fluoro-3-phenyl-4H-1-benzopyran-4-one] | 23 | 86 | – | – | – | – |
| CSc1ccc(-c2c(-c3ccc(S(N)(=O)=O)cc3)oc3ccccc3c2=O)cc1 [Example 56, 2-(4-(Aminosulfonyl)phenyl)-3-((4-methylthio)phenyl)-4H-1-benzopyran-4-one] | – | – | – | – | – | Inhibition (%) COX-2 (COX-2; 0.1 μg/ml): 53%; Inhibition (%) COX-2 (COX-2; 1 μg/ml): 84%; Inhibition (%) COX-2 (COX-2; 10 μg/ml): 90%; Inhibition (%) COX-1 (COX-1; 1 μg/ml): 77%; Inhibition (%) COX-1 (COX-1; 10 μg/ml): 90% |
| COc1ccc(Cl)c2oc(-c3ccc(S(N)(=O)=O)cc3)c(-c3ccc(F)cc3)c(=O)c12 [Example 65, 2-(4-(Aminosulfonyl)phenyl)-8-chloro-3-(4-fluorophenyl)-5-methoxy-4H-1-benzopyran-4-one] | – | 67 | 93 | 73 | 24 | – |
| NS(=O)(=O)c1ccc(-c2oc3ccccc3c(=S)c2-c2ccc(F)cc2)cc1 [Example 69, 2-(4-(Aminosulfonyl)phenyl)-3-(4-fluorophenyl)-4H-1-benzopyran-4-thione] | 42 | 98 | 100 | 90 | 68 | – |
| NS(=O)(=O)c1ccc(-c2oc3cc(F)ccc3c(=O)c2-c2ccccc2F)cc1 [Example 60, 2-(4-(Aminosulfonyl)phenyl)-7-fluoro-3-(2-fluorophenyl)-4H-1-benzopyran-4-one] | 43 | 100 | – | – | – | – |
| NS(=O)(=O)c1ccc(-c2oc3cc(F)ccc3c(=O)c2-c2cccc(F)c2)cc1 [Example 61, 2-(4-(Aminosulfonyl)phenyl)-7-fluoro-3-(3-fluorophenyl)-4H-1-benzopyran-4-one] | 69 | 97 | – | 38 | 22 | – |
| NS(=O)(=O)c1ccc(-c2oc3ccc(F)cc3c(=S)c2-c2ccc(F)cc2)cc1 [Example 68, 2-(4-(Aminosulfonyl)phenyl)-6-fluoro-3-(4-fluorophenyl)-4H-1-benzopyran-4-thione] | 89 | 100 | – | 83 | 58 | – |
| COc1ccc2c(=O)c(-c3ccc(F)cc3)c(-c3ccc(S(N)(=O)=O)cc3)oc2c1 [Example 64, 2-(4-(Aminosulfonyl)phenyl)-7-methoxy-3-(4-fluorophenyl)-4H-1-benzopyran-4-one] | < 5 | 52 | 47 | – | – | – |
| NS(=O)(=O)c1ccc(-c2oc3cc(F)ccc3c(=O)c2-c2ccc(Cl)c(Cl)c2)cc1 [Example 62, 2-(4-(Aminosulfonyl)phenyl)-7-fluoro-3-(3,4-dichlorophenyl)-4H-1-benzopyran-4-one] | 89 | 100 | – | 76 | 54 | – |
| NS(=O)(=O)c1ccc(-c2oc3c(Cl)ccc(O)c3c(=O)c2-c2ccc(F)cc2)cc1 [Example 66, 2-(4-(Aminosulfonyl)phenyl)-8-chloro-3-(4-fluorophenyl)-5-hydroxy-4H-1-benzopyran-4-one] | – | 83 | 90 | 80 | 40 | – |
| Cc1cccc(-c2c(-c3ccc(S(C)(=O)=O)cc3)oc3ccccc3c2=O)c1 [Example 22, 3-(3-Methylphenyl)-2-(4-(methylsulfonyl)phenyl)-4H-1-benzopyran-4-one] | 14 | 82 | 90 | – | – | – |
| CS(=O)(=O)c1ccc(-c2oc3ccccc3c(=O)c2-c2cccc(Cl)c2)cc1 [Example 24, 3-(3-Chlorophenyl)-2-(4-(methylsulfonyl)phenyl)-4H-1-benzopyran-4-one] | 22 | 86 | 95 | – | – | – |
